Source: patent US20090162329A1, “COMPOSITIONS COMPRISING HDAC INHIBITORS AND METHODS OF THEIR USE IN RESTORING STEM CELL FUNCTION AND PREVENTING HEART FAILURE” (priority 2007, published 2009)
Entries after “also recorded” stand apart in the source; their conditions may differ.

Experiments:
DNA methyltransferases = conditions: ECs and non-EC types; cited from earlier work
ESCs = assay: Effect of HDAC inhibitors on ESC differentiation after LIF removal (FIG. 23); format: cell-based, mouse; conditions: following LIF removal
Source text: FIG. 23. Effect of HDAC inhibitors on ESC differentiation. […] DAPI, blue.

histone H3 = assay: Histone H3 methylation in ESCs by Western blotting (FIG. 15); format: cell-based; conditions: mouse ESCs, loading by histone H1
Method: FIG. 15. Histone methylation in VPCs, MPCs and ESCs. A: H3K79me2 is present in MPCs and absent in VPCs. B: Shear stress (SS) induces a 4-5-fold increase in H3K79me2 in mouse ESCs. […] Equal loading is determined on the basis of histone H1.
Western blotting. Genome-wide methylation and acetylation of histone 3 and histone 4 are analyzed. Protein lysates are obtained with Laemmli buffer containing β-mercaptoethanol. Proteins are separated on 15% SDS-PAGE, transferred onto nitrocellulose and exposed to specific antibodies against different histone modifications (H3K9me2/3, H3K27me3, H3K4me2/3, H3K79me3, H4K20me2, H4K5Ac, H4K8Ac, H4K12Ac, H4K16Ac, H3K9Ac, H3K14Ac). Loading conditions are determined by β-actin expression (6, 7, 58, 59). In a similar manner, HDAC expression is quantified in total cell lysates and in nuclear and cytoplasmic lysates (249, 250).

HDAC = conditions: mouse ESCs, nuclear HDAC activity
Method: E: The activity of HDAC was measured by employing acetylated H4 as substrate.

class I and II HDAC = conditions: cited from earlier work
myocardial hypertrophy = conditions: following pressure overload; cited from earlier work

Row | Structure (SMILES) | eNOS mRNA (DNA methyltransferases) | differentiation of ESCs into cardiovascular lineages / cardiac cell phenotypes (flk1, CD31, SM22, α-SA) (ESCs) | neuronal differentiation of ESCs (nestin expression) (ESCs) | overall methylation level of histone H3 (histone H3) | increase of HDAC activity early after LIF depletion (HDAC) | cell cycle arrest and differentiation (class I and II HDAC) | myocardial hypertrophy (myocardial hypertrophy)
1 | Nc1ncn([C@@H]2O[C@H](CO)[C@@H](O)[C@H]2O)c(=O)n1 [5-azacytidine] | induces the upregulation of eNOS mRNA | – | – | – | – | – | –
2 | Cn1c(/C=C/C(=O)NO)ccc1/C=C/C(=O)c1cccc(F)c1 [MC1568] | – | inhibits the cardiac commitment of ESCs | favors neuronal differentiation; also recorded: selective expression of nestin | – | – | – | –
3 | Nc1ccccc1NC(=O)c1ccc(CNC(=O)OCc2cccnc2)cc1 [MS27-275] | – | triggers differentiation of ESCs to cardiac cell phenotypes; also recorded: promotes the preferential differentiation of ESCs into cardiovascular lineages | opposes neuronal commitment | – | – | – | –
4 | CC(/C=C/C(=O)NO)=C\[C@@H](C)C(=O)c1ccc(N(C)C)cc1 [Trichostatin A] | – | – | selective expression of nestin | reduces the overall methylation level of histone H3 | inhibited | induces cell cycle arrest and differentiation | blunts myocardial hypertrophy
